Paper PMC5504357, “Antifungal Potential of Copper(II), Manganese(II) and Silver(I) 1,10-Phenanthroline Chelates Against Multidrug-Resistant Fungal Species Forming the Candida haemulonii Complex: Impact on the Planktonic and Biofilm Lifestyles” (Frontiers in Microbiology, 2017)
In brackets after ≈: the same amount, converted by molar mass. Where two headings read alike, the source gives them in different places.

How the values were obtained:
C. haemulonii complex = assay: Planktonic growth, overall across all nine isolates; format: cell-based, Candida haemulonii complex; settings: for MIC / Overall GM-MIC: geometric mean across all nine strains; for MIC: read-out: Overall GM-MIC; for effect on planktonic fungal growth/viability (in words): nine clinical isolates, 0.0625-32 mg/L
Excerpt: (§1) Three clinical isolates of each species that form the C. haemulonii complex were used in this study: C. haemulonii (LIPCh4 from finger nail, LIPCh7 from toe nail, and LIPCh12 from blood), C. duobushaemulonii (LIPCh1 from finger nail, LIPCh6 from toe nail, and LIPCh8 from blood) and C. haemulonii var. vulnera (LIPCh5 from toe nail, LIPCh9 from urine, and LIPCh11 from blood) (Ramos et al., [2015]). The fungal isolates were identified by the automatized system VITEK® 2 and then characterized by ITS1-5.8S-ITS2 gene sequencing (Ramos et al., [2015]). Fungal cells were cultured in Sabouraud-dextrose medium under constant agitation (130 rpm) for 48 h at 37°C. Human lung adenocarcinoma A549 cells were maintained in culture flasks containing DMEM medium supplemented with 10% fetal bovine serum at 37°C in an atmosphere of 5% CO2.
(§2) Susceptibility profile assays were performed in accordance with the broth microdilution protocol described in the document M27-A3 published by the Clinical and Laboratory Standards Institutes (CLSI, [2008]). Samples of the test chelates were dissolved in DMSO (500 μL) and then serially diluted in a 96-well plate containing RPMI 1640 (Sigma-Aldrich, USA) to give the concentration range of 0.0625-32 mg/L. Aqueous solutions of the metal-free phen ligand and the simple metal salts, MnCl2, CuCl2, and AgNO3, were also screened over the same concentration range. Caspofungin (Sigma-Aldrich) was used as a classical antifungal agent able to block the growth of all clinical isolates of C. haemulonii species as previously reported by our research group (Ramos et al., [2015]). Water dilutions containing DMSO concentrations corresponding to those used to prepare the drug solutions were assessed in parallel. Untreated and compound-treated fungal cells were incubated at 37°C for 48 h and the minimal inhibitory concentration (MIC) was established as the lowest compound concentration where no cellular growth could be detected by visual inspection in accordance to the CLSI recommendation. The geometric mean of the MIC values (GM-MIC) of each compound against all the fungal isolates was calculated using the software, Microsoft Office Excel 2013.

Candida duobushaemulonii = assay: Planktonic growth, broth microdilution (CLSI M27-A3), MIC; format: cell-based
Excerpt: as §1, §2

Candida haemulonii = assay: as above; format: cell-based
Excerpt: as §1, §2

[1] = system: Candida haemulonii var. vulnera; assay: as above; format: cell-based
Excerpt: as §1, §2

A549 cells = assay: Mammalian cell toxicity (MTT assay) and selectivity index; format: cell-based, Human
Excerpt: as §1
The cytotoxicity was evaluated using the MTT [3-(4,5-dimethylthiazol-2-yl)-2,5-diphenyl tetrazolium bromide] (Sigma-Aldrich) assay (Mosmann, [1983]). A549 cells (10^4) were seeded into tissue culture plates (TPP, Switzerland) and cultured for 24 h at 37°C in a 5% CO2 in order to obtain cellular confluence. The wells were then washed twice with DMEM to remove non-adherent cells and the test compounds were added (in concentrations ranging from 0.0313 to 512 μg/mL) to plates containing DMEM, followed by a 48 h incubation period under the same conditions mentioned above. The cellular viability was evaluated by adding MTT to each well and incubating the plates in the dark for 3 h, allowing the viable cells containing active mitochondrial dehydrogenase enzymes to metabolize MTT-tetrazolium salt into purple formazan. The formazan crystals were then dissolved in DMSO (100 μL) and the absorbance (450 nm) measured using a Thermomax Molecular Device microplate reader. The concentration capable of reducing cellular viability by 50% (CC50) was calculated, and the selectivity index (SI) determined using the following equation: A549 CC50/C. haemulonii complex GM-MIC.

[2] = isolate LIP Ch1, planktonic, 48 h, 37°C
[3] = geometric mean of three C. duobushaemulonii isolates
[4] = isolate LIP Ch6, planktonic, 48 h, 37°C
[5] = isolate LIP Ch8, planktonic, 48 h, 37°C
[6] = geometric mean of three C. haemulonii isolates
[7] = isolate LIP Ch4, planktonic, 48 h, 37°C
[8] = isolate LIP Ch7, planktonic, 48 h, 37°C
[9] = isolate LIP Ch12, planktonic, 48 h, 37°C
[10] = geometric mean of three C. haemulonii var. vulnera isolates
[11] = isolate LIP Ch5, planktonic, 48 h, 37°C
[12] = isolate LIP Ch9, planktonic, 48 h, 37°C
[13] = isolate LIP Ch11, planktonic, 48 h, 37°C

SMILES	MIC (Candida duobushaemulonii; [2]) [µg/mL]	A549 (CC50) (A549 cells; MTT, 48 h incubation) [µg/mL]	Overall GM-MIC (C. haemulonii complex) [µg/mL]	effect on planktonic fungal growth/viability (in words) (C. haemulonii complex)	GM-MIC (Candida duobushaemulonii; [3]) [µg/mL]	MIC (Candida duobushaemulonii; [4]) [µg/mL]	MIC (Candida duobushaemulonii; [5]) [µg/mL]	GM-MIC (Candida haemulonii; [6]) [µg/mL]	MIC (Candida haemulonii; [7]) [µg/mL]	MIC (Candida haemulonii; [8]) [µg/mL]	MIC (Candida haemulonii; [9]) [µg/mL]	GM-MIC [1, 10] [µg/mL]	MIC [1, 11] [µg/mL]	MIC [1, 12] [µg/mL]	MIC [1, 13] [µg/mL]	A549 (CC50) (A549 cells) [µg/mL]	MIC (C. haemulonii complex; in μM) [µM]	other results
CC[C@H](C)C[C@H](C)CCCCCCCCC(=O)N[C@H]1C[C@@H](O)[C@@H](NCCN)NC(=O)[C@@H]2[C@@H](O)CCN2C(=O)[C@H]([C@H](O)CCN)NC(=O)[C@H]([C@H](O)[C@@H](O)c2ccc(O)cc2)NC(=O)[C@@H]2C[C@@H](O)CN2C(=O)[C@H]([C@@H](C)O)NC1=O [Caspofungin, reference compound]	0.125 (≈ 0.114 µM)																	MIC (C. haemulonii complex; Candidozyma haemuli, in μM): 0.18 µM; MIC (C. haemulonii complex; Candidozyma haemuli): 0.23 µg/mL; MIC (Candida duobushaemulonii; Candidozyma duobushaemuli, 48 h): 0.125 µg/mL (≈ 0.114 µM); MIC (Candida duobushaemulonii; Candidozyma duobushaemuli, 48 h, isolate LIP Ch6, planktonic, 48 h, 37°C, read-out: MIC): 0.25 µg/mL (≈ 0.229 µM); MIC (Candida duobushaemulonii; Candidozyma duobushaemuli, geometric mean of three C. duobushaemulonii isolates, read-out: GM-MIC): 0.157 µg/mL (≈ 0.144 µM); MIC (Candida haemulonii; Candidozyma haemuli, 48 h): 0.125 µg/mL (≈ 0.114 µM); MIC (Candida haemulonii; Candidozyma haemuli, 48 h, isolate LIP Ch4, planktonic, 48 h, 37°C, read-out: MIC): 0.5 µg/mL (≈ 0.457 µM); MIC (Candida haemulonii; Candidozyma haemuli, 48 h, isolate LIP Ch7, planktonic, 48 h, 37°C, read-out: MIC): 0.25 µg/mL (≈ 0.229 µM); MIC (Candida haemulonii; Candidozyma haemuli, geometric mean of three C. haemulonii isolates, read-out: GM-MIC): 0.25 µg/mL (≈ 0.229 µM); MIC ([1]; Candidozyma haemuli, 48 h, isolate LIP Ch5, planktonic, 48 h, 37°C, read-out: MIC): 0.25 µg/mL (≈ 0.229 µM); MIC ([1]; Candidozyma haemuli, 48 h, isolate LIP Ch9, planktonic, 48 h, 37°C, read-out: MIC): 0.25 µg/mL (≈ 0.229 µM); MIC ([1]; Candidozyma haemuli, 48 h, isolate LIP Ch11, planktonic, 48 h, 37°C, read-out: MIC): 0.5 µg/mL (≈ 0.457 µM); MIC ([1]; Candidozyma haemuli, geometric mean of three C. haemulonii var. vulnera isolates, read-out: GM-MIC): 0.315 µg/mL (≈ 0.288 µM)
[Cl][Cu][Cl] [CuCl2, reference compound]	>32	123.68	> 32	no appreciable effects	>32	>32	>32	>32	>32	>32	>32	>32	>32	>32	>32			
[Cl][Mn][Cl] [MnCl2, reference compound]	>32	133.76	> 32	no appreciable effects	>32	>32	>32	>32	>32	>32	>32	>32	>32	>32	>32			
O.O.O=C([O-])c1ccccc1C(=O)[O-].[Cu+2].c1cnc2c(c1)ccc1cccnc12 [compound 1, [Cu(ph)(phen)(H2O)2]]	>32		> 32		>32	>32	>32	>32	>32	>32	>32	>32	>32	>32	>32	0.53	> 72	
CCO.CCO.O.O.O.O=C([O-])c1ccccc1C(=O)[O-].[Cu+2].c1cnc2c(c1)ccc1cccnc12.c1cnc2c(c1)ccc1cccnc12 [compound 2, [Cu(ph)(phen)2].3H2O.2EtOH]	>32		> 32		>32	>32	>32	>32	>32	>32	>32	>32	>32	>32	>32	1.93	> 43.52	
CCO.CCO.O=C([O-])c1ccc(C(=O)[O-])cc1.O=C([O-])c1ccc(C(=O)[O-])cc1.[Cu+2].[Cu+2].c1cnc2c(c1)ccc1cccnc12.c1cnc2c(c1)ccc1cccnc12.c1cnc2c(c1)ccc1cccnc12.c1cnc2c(c1)ccc1cccnc12 [compound 4, [{Cu(phen)2}2(terph)](terph).13.5H2O.2EtOH]	>32	3.86	> 32		>32	>32	>32	>32	>32	>32	>32	32	32	32	32		> 21.92	
